The assay addresses T1, full-length human PKCι (Homo sapiens, UniProt P41743).
T1 construct: Recombinant, full-length human PKCι expressed in Sf21 insect cells is also commercially available; purchased; host or cells: Sf21 insect cells
T1 sequence (P41743 1-596): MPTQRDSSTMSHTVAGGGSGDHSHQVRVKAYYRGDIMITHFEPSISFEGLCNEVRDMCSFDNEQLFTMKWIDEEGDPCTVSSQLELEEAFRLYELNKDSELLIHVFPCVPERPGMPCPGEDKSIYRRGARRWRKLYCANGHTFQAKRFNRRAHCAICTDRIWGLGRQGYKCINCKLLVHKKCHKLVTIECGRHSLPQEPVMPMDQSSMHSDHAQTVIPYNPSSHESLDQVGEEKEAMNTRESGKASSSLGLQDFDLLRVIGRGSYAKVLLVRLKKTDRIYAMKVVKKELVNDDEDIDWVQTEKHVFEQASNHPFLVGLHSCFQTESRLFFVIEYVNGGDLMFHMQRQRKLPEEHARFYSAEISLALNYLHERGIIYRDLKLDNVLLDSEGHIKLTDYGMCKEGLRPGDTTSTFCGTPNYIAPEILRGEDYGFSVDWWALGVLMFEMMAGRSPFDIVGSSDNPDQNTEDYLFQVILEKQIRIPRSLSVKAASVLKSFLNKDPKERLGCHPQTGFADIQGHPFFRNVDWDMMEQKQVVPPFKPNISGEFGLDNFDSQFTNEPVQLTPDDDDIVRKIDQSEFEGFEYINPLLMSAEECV
Description: PKCι IC50 IMAP assay, full-length PKCι at 150 μM ATP. The settings on record: read-out: IC50 in IMAP assay against full length PKCi at 150 μM ATP. In kind it is biochemical. The method in brief: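 Recombinant full-length human PKCι (Sf21-expressed, typically 15 pM) phosphorylated 100 nM 5FAM-labelled PKCε pseudosubstrate-derived peptide with 150 μM ATP (5× KM^APP) in 18 mM tris-HCl pH7.5, 9 mM MgCl2, EGTA, DTT, 4% DMSO. After 60 min at room temperature, IMAP binding reagent was added for 2 h and fluorescence polarisation read.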

Bounds are passed on as bounds.

As for `Fc1cc(F)c(Nc2cc(-c3nc(NC4CCNCC4)c4c(C5CC5)cncc4n3)ccn2)nc1F` [Example 2065, {5-Cyclopropyl-2-[2-(3,5,6-trifluoro-pyridin-2-ylamino)-pyridin-4-yl]-pyrido[3,4-d]pyrimidin-4-yl}-piperidin-4-yl-amine], the IC50 is less than 100 nM.

As to `N#Cc1ccc(F)c(Nc2cc(-c3nc(N4CCNCC4)c4c(C5CC5)cncc4n3)ccn2)c1` [Example 528, 3-[4-(5-Cyclopropyl-4-piperazin-1-yl-pyrido[3,4-d]pyrimidin-2-yl)-pyridin-2-ylamino]-4-fluoro-benzonitrile], the IC50 fell in the range of 100 to 1000 nM. Then `COc1cncc2nc(-c3ccnc(Nc4cccc(OCC(N)=O)c4)c3)nc(N[C@@H]3CCNC3)c12` [Example 323, 2-(3-{4-[5-Methoxy-4-((R)-pyrrolidin-3-ylamino)-pyrido[3,4-d]pyrimidin-2-yl]-pyridin-2-ylamino}-phenoxy)-acetamide], with less than 100 nM. As to `FC(F)(F)c1ccnc(Nc2cc(-c3nc(N4CCNCC4)c4c(C5CC5)cncc4n3)ccn2)c1` [Example 269, [4-(5-Cyclopropyl-4-piperazin-1-yl-pyrido[3,4-d]pyrimidin-2-yl)-pyridin-2-yl]-(4-trifluoromethyl-pyridin-2-yl)-amine], the IC50 is less than 100 nM. Then `COc1cncc2nc(-c3ccnc(Nc4cccc(F)n4)c3)nc(N3CC[C@H](CO)C3)c12` [Example 470, ((S)-1-{2-[2-(6-Fluoro-pyridin-2-ylamino)-pyridin-4-yl]-5-methoxy-pyrido[3,4-d]pyrimidin-4-yl}-pyrrolidin-3-yl)-methanol], with 1000 to 10000 nM; and `O=C(CC(F)(F)F)Nc1cc(-c2nc(N3CCNCC3)c3c(C4CC4)cncc3n2)ccn1` [Example 613, N-[4-(5-Cyclopropyl-4-piperazin-1-yl-pyrido[3,4-d]pyrimidin-2-yl)-pyridin-2-yl]-3,3,3-trifluoro-propionamide], with less than 100 nM; and `Fc1ccc(C(F)(F)F)cc1Nc1cc(-c2nc(N3CCNCC3)c3c(C4CC4)cncc3n2)ccn1` [Example 522, [4-(5-Cyclopropyl-4-piperazin-1-yl-pyrido[3,4-d]pyrimidin-2-yl)-pyridin-2-yl]-(2-fluoro-5-trifluoromethyl-phenyl)-amine], with 100 to 1000 nM. Then `COc1cncc2nc(-c3ccnc(NC(C)=O)c3)nc(N3CCC(O)CC3)c12` [Example 215, N-{4-[4-(4-Hydroxy-piperidin-1-yl)-5-methoxy-pyrido[3,4-d]pyrimidin-2-yl]-pyridin-2-yl}-acetamide], with 100 to 1000 nM.

With `Cc1noc(C)c1-c1nccc2c(NC[C@@H](N)Cc3ccccc3)nc(-c3ccncc3)nc12` [Example 112, N-[(2S)-2-amino-3-phenylpropyl]-8-(dimethyl-1,2-oxazol-4-yl)-2-(pyridin-4-yl)-pyrido[3,4-d]-pyrimidin-4-amine], the concentration for half-maximal inhibition (IC50) lay in the range of 10000 to 40000 nM.

With `COc1cncc2nc(-c3ccnc(Nc4ccc(N5CCN(C)CC5)nc4)c3)nc(N[C@@H]3CCNC3)c12` [Example 331, (5-Methoxy-2-{2-[6-(4-methyl-piperazin-1-yl)-pyridin-3-ylamino]-pyridin-4-yl}-pyrido[3,4-d]pyrimidin-4-yl)-(R)-pyrrolidin-3-yl-amine], the IC50 was less than 100 nM. Consider `c1ccc(Nc2cc(-c3nc(N4C[C@@H]5C[C@H]4CN5)c4ccncc4n3)ccn2)cc1` [Example 306, {4-[(1S,4S)-4-(2,5-Diaza-bicyclo[2.2.1]hept-2-yl)-pyrido[3,4-d]pyrimidin-2-yl]-pyridin-2-yl}-phenyl-amine], for which the IC50 was 1000 to 10000 nM. Then `OCC1CN(c2nc(-c3ccncc3)nc3c(Cl)nccc23)C1` [Example 73, {1-[8-chloro-2-(pyridin-4-yl)-pyrido[3,4-d]-pyrimidin-4-yl]-azetidin-3-yl}-methanol], with 10000 to 40000 nM; and `Fc1ccccc1Nc1cc(-c2nc(N3CCN[C@@H](C4CC4)C3)c3c(C4CC4)cncc3n2)ccn1` [Example 276, {4-[5-Cyclopropyl-4-((S)-3-cyclopropyl-piperazin-1-yl)-pyrido[3,4-d]pyrimidin-2-yl]-pyridin-2-yl}-(2 fluoro-phenyl)-amine], with less than 100 nM.

The term IC50 denotes the concentration needed to halve the response being measured.

Values taken from patent US9914730B2, “Azaquinazoline inhibitors of Atypical protein Kinase C” (Ignyta, Inc., priority 2012, dated 2018).
